# Assay results from patent US5929039A, “Method for treating cardiac dysfunction and pharmaceutical compositions useful therefor” (Baker Medical Research Institute, priority 1993, dated 1999).
# Read-outs that look alike come from different tables or passages of the source.
# Assays:
# [1] = system: [3H]-labelled inositol phosphate accumulation; test: [3H]-labelled inositol phosphate accumulation in isolated perfused rat hearts under ischaemia and post-ischaemic reperfusion; details: for average inhibition of [3H]-labelled inositol phosphate accumulation: vs 2 min post-ischaemic reperfusion without neomycin
# Description: (§1) Adult male sprague dawley rats 250-300 g were used. Where indicated, rats were treated with reserpine (5 mg/kg I.P. for 18 hrs prior to killing) to deplete endogenous noradrenaline stores.. Rats were heparinized 1 U/g I.P. 30 minutes prior to killing by decapitation. Hearts were rapidly excised and immediately chilled in ice-cold saline. Under ice-cold solution, hearts were cannulated via the ascending aorta as described by Langendorff and perfused retrogradely at a rate of 5 ml/min with HEPES-buffered Krebs solution equilibrated with 5%CO2 -95%O2 at 37° C. Initial perfusion was in a non-recirculating manner to remove internal blood. Hearts were allowed to warm up gradually and, when free of internal blood, transferred to a 37° C. water-jacketed organ bath containing carbogenated Krebs medium, and perfusion continued in a recirculating manner. Following a 15 minute equilibration period, hearts were labelled with [^3 H]-inositol, 2 μCi/ml for 2 h. Hearts were monitored throughout the labelling period for strong rhythmic beating.
# (§2) Following labelling, the [^3 H]-inositol-containing medium was removed, and replaced with Krebs medium containing propranolol (10^-6 M) and lithium chloride (50 mM) to block β-adrenergic receptors and to inhibit InsP metabolism by InsP 1'-phosphatase respectively (20). Hearts were perfused with propranolol, LiCi solution for 10 minutes prior to ischaemia. Antagonists, when administered, were included in this 10 minute preincubation. Normothermic global ischaemia was induced by terminating perfusion for various times up to 30 minutes. Reperfusion was examined following a 20 minute ischaemic period by resuming perfusion at 5 ml/min. Reactions were terminated by freezing hearts in liquid N2 following excision at the atrioventricular junction. Frozen ventricles were weighed and inositol phosphates extracted as described below.
# (§3) Inositol phosphates were extracted from ventricle samples in 3.5 ml ice-cold 5% trichloroacetic acid (TCA), 2.5 mM EDTA, 5 mM phytate solution, as described previously (21). Briefly, ventricles were homogenised with two 10 second passes of a "Polytron" homogenizer separated by 15 second periods on ice. Samples were homogenised further using a Potter-Elvejheim homogeniser followed by brief sonication. Homogenised samples were centrifuged (5000 rpm, 10 min, 4° C.) to remove TCA insoluble material. Supernatants were collected, and the remaining pellet re-extracted in 1.5 ml TCA, EDTA, phytate. Supernatants were pooled and freon, tri-n-ocylamine (1:1 v/v 0.75 ml:1 ml TCA solution) was added, mixed thoroughly, and phases separated by low speed centrifugation (2000 rpm, 10 min 4° C.). The resultant aqueous phase, containing inositol phosphates was collected and treated with proteinase K (50 μg/ml, 2 hr, 50° C.). This process was necessary to preserve the chromatography column. Treated samples were passed through a 1 ml Dowex-50 column (4% cross-linked 4-400 mesh size) and eluted with 1 ml water (22). Urea (0.05 M final) was added (23) and samples lyophilized prior to high performance liquid chromatography (HPLC) analysis. Recovery of inositol phosphates using this method was greater than 95% for each isomer, as estimated by addition of [^3 H]-labelled standards to extractions of unlabelled hearts.
# (§4) Inositol phosphates were separated by an anion-exchange HPLC system using a Whatman Partisil 10μ SAX column in a Waters Radial Compression Unit, employing a complex ammonium phosphate gradient, pH 3.8 from 0-2 M as described previously (24). Inositol phosphates were detected and quantitated using an on-line […] (model CR, Radiomatic Instruments) All peaks were identified by comparison with commercial standards. Nucleotide standards AMP, ADP, and ATP were run with samples to assess column performance.
# (§5) Values presented are mean ±SEM, for n=4 unless otherwise stated. Statistical analysis of results involved Students' unpaired "t-test" for all InsP data.
# Ins(1,4,5)P3 release [2] = test: Ins(1,4,5)P3 mass in isolated perfused rat hearts, 2 min reperfusion after 20 min global ischaemia (competitive binding assay); details: for Ins(1,4,5)P3 mass: control 200 ± 18
# Description: as §1, §2, §3
# Mass of Ins(1,4,5)P3 was measured using a competitive binding assay (Amersham TRK 1000) essentially as described previously (26). Ventricle samples were prepared as described above except for the omission of [^3 H]-label during the 2 hr perfusion of hearts prior to ischaemia, and for the use of 5 mm ATP instead of phytate in the extraction procedure.
# Protein concentration was determined in aliquots of TCA pellet following InsP extraction using a modified Lowry method with Bovine Serum Albumin as a standard.
# as §5
# [3] = system: in situ perfused rat hearts; details: for Reperfusion-induced arrhythmias VF % incidence / Reperfusion-induced arrhythmias VT % incidence: control 83
# Description: (§6) A model of in situ perfused rat hearts subjected to 20 minutes coronary artery occlusion to induce ischaemia, followed by reperfusion was used to investigate reperfusion-induced arrhythmias.
# (§7) Rats (250-300 g) were anaesthetised (pentobarbitone 60 mg/kg, I.P.) and heparinised (200 U/rat I.V.) The thorax was then opened and a metal cannula (ID 1 mm) inserted and tied into the ascending aorta, to commence Langendorff perfusion in situ (31). The interval from opening the chest to commencing heart perfusion was between 50 and 70 seconds. The perfusate was Krebs buffer, with coronary flow controlled by a Ismatac peristaltic pump at a rate of 5 ml/g heart weight/min for the non-ischaemic perfusion. At this flow rate the coronary perfusion pressure was between 32-38 mmHg, measured by pressure transducer (Gould Statham model p23) connected to the sidearm of the perfusion line. Following aortic cancellation, pulmonary vessels were tied off. In some preparations, ventricular pressure was measured by inserting a Millar micro-tip transducer catheter into the left ventricular cavity via the apex. All parameters--coronary perfusion pressure, ventricular pressure, and epicardial ECG, were constantly recorded on a Grass model 7 polygraph. Two hearts were perfused and simultaneously studied.
# (§8) A silk suture (4.0) was positioned loosely around the left coronary artery 2-3 mm from its origin. Two silk releasing rings were placed around the suture for subsequent release of occlusion. Successful occlusion of the artery, inducing regional ischaemia, was indicated by increases in coronary perfusion pressure of at least 30%. Perfusion pressure was adjusted to non-ischaemic perfusion levels during the ischaemic period.
# (§9) Drugs were added to the perfusion via a Harvard Model 22 pump. The drug flow was less than 1% of perfusion flow to ensure constant perfusate parameters. Unless mentioned otherwise, the drugs were present 10 minutes before, and during the entire ischaemic and reperfusion periods.
# (§10) Heart preparations were allowed to stabilise for at least 20 minutes prior to commencing studies. Following 10 minute drug incubation, the left coronary artery was ligated to induce local ischaemia, for a period of 20 minutes. At the end of this ischaemic period, the ligature was released and hearts perfused at pre-ischaemic flow for a period of 5 minutes. Ventricular arrhythmias, occurring during ischaemia or during the first 2 minutes of reperfusion were defined according to the Lambeth Conventions (32).
# Incidence of arrhythmias was analysed using a .chi.^2 test, with n≥8 for each group.
# [4] = system: hearts from reserpinized rats; test: Arrhythmic effect of thrombin under reperfusion conditions, perfused hearts from reserpinized rats; set-up: species or system rat; details: for VF% / VT%: n 9
# Description: as §6, §7, §8, §9, §10
# The finding that thrombin directly stimulated release of Ins(1,4,5)P3 in heart indicates the possibility that thrombin might cause arrhythmias directly via this mechanism. Experiments were performed using hearts from reserpinized rats so that arrhythmic events initiated by noradrenaline were eliminated. Reperfusion arrhythmias were not observed in hearts from reserpinized animals. […] Furthermore, these arrhythmias were inhibited by gentamicin, indicating a relationship to release of Ins(1,4,5)P3 (Table 2).
# Ins(1,4,5)P3 release [5] = test: Thrombin-stimulated release of Ins(1,4,5)P3 in heart tissue
# [6] = system: inositol phosphate accumulation in heart tissue; test: Inositol phosphate accumulation in healthy (normoxic) heart tissue; set-up: species or system rat; details: healthy heart tissue
# Description: as §1, §3, §4
# PI-PLC heart rep = test: Inhibition of PI-PLC in hearts under reperfusion conditions; set-up: species or system rat
# Description: as §1, §2
# Mass of Ins(1,4,5)P3 was measured using a competitive binding assay (Amersham TRK 1000) essentially as described previously (26). […]
# PI-PLC kidney cy = details: cytosolic enzyme; from the literature (35); cited from earlier work
# PI-PLC kidney me = details: membrane enzyme; from the literature (35); cited from earlier work
# [7] = 25 μg/kg I.P. 48 h prior to experimentation
# [8] = thrombin 2 U/ml in perfusate, reserpinized hearts
# [9] = hearts from reserpinized rats, no thrombin
# [10] = 0.5 mM, 2 min reperfusion after 20 min global ischaemia
# [11] = 5 mM, 2 min reperfusion after 20 min global ischaemia
compound,measurement,setting,value
NC[C@H](O)c1ccc(O)c(O)c1 [noradrenaline],"release of [3H]-labelled Ins(1,4,5)P3 on reperfusion","[1]; 10^-4 M perfusion, reserpinized animals",reinstated
Pertussis toxin [PTX],"Ins(1,4,5)P3 mass","Ins(1,4,5)P3 release [2]; [7]",128 ± 28 pmol/mg protein
same,Reperfusion-induced arrhythmias VF % incidence,[3]; [7],10%
same,Reperfusion-induced arrhythmias VT % incidence,[3]; [7],40%
thrombin,reperfusion arrhythmias,"[4]; thrombin 2 U/ml added to perfusate, reserpinized hearts",high incidence
same,VF%,[4]; [8],67%
same,VT%,[4]; [8],89%
same,"release of Ins(1,4,5)P3 in heart tissue","Ins(1,4,5)P3 release [5]",directly stimulates release
COC(=O)[C@H]1[C@H]2C[C@@H]3c4[nH]c5cc(OC)ccc5c4CCN3C[C@H]2C[C@@H](OC(=O)c2cc(OC)c(OC)c(OC)c2)[C@@H]1OC [reserpine],rapid accumulation of inositol phosphates at 2 minutes post-ischaemic reperfusion,[1]; prior reserpine treatment (5 mg/kg I.P. 18 hrs),prevented
same,VF%,[4]; [9],0%
same,VT%,[4]; [9],44%
CN[C@@H]1C[C@H]2O[C@@](C)([C@@H]1OC)n1c3ccccc3c3c4c(c5c6ccccc6n2c5c31)C(=O)NC4 [staurosporine],percentage incidence of reperfusion-induced arrhythmias vs untreated controls,[3]; 10^-7 M,did not significantly alter
same,Reperfusion-induced arrhythmias VF % incidence,[3]; .1 μM,69%
same,Reperfusion-induced arrhythmias VT % incidence,[3]; .1 μM,83%
neomycin,"Ins(1,4,5)P3 mass","Ins(1,4,5)P3 release [2]; 0.05 mM, 2 min reperfusion after 20 min global ischaemia, mean±SEM, 4 hearts",184 ± 7 pmol/mg protein
same,"Ins(1,4,5)P3 mass","Ins(1,4,5)P3 release [2]; [10]",121 ± 11 pmol/mg protein
same,"Ins(1,4,5)P3 mass","Ins(1,4,5)P3 release [2]; [11]",104 ± 12 pmol/mg protein
same,inhibition of accumulation of [3H]-labelled inositol phosphates,"[1]; 0.05 mM, added 10 min prior to ischaemia, 2 min reperfusion",did not significantly inhibit
same,average inhibition of [3H]-labelled inositol phosphate accumulation,[1]; 0.5 mM,45%
same,average inhibition of [3H]-labelled inositol phosphate accumulation,[1]; 5 mM,55%
same,increase in sensitivity of myocardial tissue to neomycin during post-ischaemic reperfusion,[1]; reperfusion vs healthy heart,more than 10 fold
same,effect on accumulations of Inositol phosphate1 and Inositol phosphate2,[6]; 5 mM,without effect
same,"reduction in accumulation of [3H]Ins(1,4,5)P3",[6]; 5 mM,20%
same,effect on inositol phosphate accumulation,[6]; concentrations lower than 5 mM,ineffective
same,rats showing both severe VT and VF throughout reperfusion,[3]; 0.05 mM,6 out of 8
same,Reperfusion-induced arrhythmias VF % incidence,[3]; 0.05 mM,70%
same,Reperfusion-induced arrhythmias VT % incidence,[3]; 0.05 mM,75%
same,rats exhibiting VT or VF on reperfusion,[3]; 0.5 mM,none of the 10 rats
same,heart rate and ventricular pressure,"[3]; 0.5 mM, after 10 minute incubation prior to occlusion",not significantly differing from control
same,Reperfusion-induced arrhythmias VF % incidence,[3]; 0.5 mM,0%
same,Reperfusion-induced arrhythmias VT % incidence,[3]; 0.5 mM,0%
same,Reperfusion-induced arrhythmias VF % incidence,[3]; 5 mM,0%
same,Reperfusion-induced arrhythmias VT % incidence,[3]; 5 mM,0%
same,EC50,PI-PLC heart rep,400 µM
same,EC50,PI-PLC kidney cy,30 µM
same,EC50,PI-PLC kidney me,200 µM
COc1cc2nc(N3CCN(C(=O)c4ccco4)CC3)nc(N)c2cc1OC [prazosin],2 minute reperfusion inositol phosphate response,[1]; 10 μM,inhibited
same,redistribution of [3H]-labelled inositol phosphates under ischaemic conditions,"[1]; global ischaemia, α1 adrenoceptor blockade",unaffected
NCCCNCCCCNCCCN [spermine],"inhibition of reperfusion-induced Ins(1,4,5)P3 release","Ins(1,4,5)P3 release [2]",inhibitory
same,"Ins(1,4,5)P3 mass","Ins(1,4,5)P3 release [2]; [10]",182 + 4 pmol/mg protein
same,"Ins(1,4,5)P3 mass","Ins(1,4,5)P3 release [2]; [11]",160 ± 9 pmol/mg protein
same,effect on reperfusion arrhythmias,[3],inhibited
same,Reperfusion-induced arrhythmias VF % incidence,[3]; 0.5 mM,36%
same,Reperfusion-induced arrhythmias VT % incidence,[3]; 0.5 mM,63%
same,Reperfusion-induced arrhythmias VF % incidence,[3]; 5 mM,20%
same,Reperfusion-induced arrhythmias VT % incidence,[3]; 5 mM,30%
